{"source": "patent US20260272907A1", "about": "“Therapeutic Tyrosine Kinase Inhibitors for Multiple Sclerosis” (Principia Biopharma Inc., priority 2022, published 2026)", "origin": "cited, not measured here", "test_system": "RMS patients", "details": "from Week 12; cited from earlier work"}
{"smiles": "C=CC(=O)N1CCC(CNc2ncnc(N)c2-c2ccc(Oc3ccccc3)cc2)CC1", "note": "[evobrutinib]", "values": [{"measurement": "Reduction of new Gd-enhancing T1 lesions", "result": "meaningful reduction"}]}
